The record followed here is ChEMBL document CHEMBL5113537, “Discovery of β-Arrestin-Biased 25CN-NBOH-Derived 5-HT2A Receptor Agonists” (J Med Chem, 2022).

Activity calls are given as the source filed them. No cut-off for these calls is given here.

The target of experiment [1] is 5-hydroxytryptamine receptor 2A (Homo sapiens) (UniProt P28223). The experiment is described as follows: Agonist activity at wild type human 5HT2A transfected in HEK293T cells assessed as beta arrestin-2 recruitment measured for 2 hrs by luminescent assay. In kind it is functional, cell-based. The conditions noted are these: filed as agonist. (Arrestin recruitment assays detect the binding of arrestin to an activated receptor.)

Experiment [2] is filed under the species Homo sapiens. The experiment is described as follows: Selectivity ratio of EC50 for agonist activity at human 5HT2A S159A mutant transfected in HEK293T cells assessed as mini Galphaq recruitment measured for 2 hrs by luminescent assay to EC50 for agonist activity at human wild type 5HT2A transfected in HEK293T cells assessed as mini Galphaq recruitment measured for 2 hrs by luminescent assay. In kind it is cell-based.

For experiment [3], the species on record is Homo sapiens. Put plainly: Selectivity ratio of EC50 for agonist activity at human 5HT2A S159A mutant transfected in HEK293T cells assessed as beta arrestin-2 recruitment measured for 2 hrs by luminescent assay to EC50 for agonist activity at human wild type 5HT2A receptor transfected in HEK293T cells assessed as beta arrestin-2 recruitment measured for 2 hrs by luminescent assay. In kind it is cell-based.

Sequence of 5-hydroxytryptamine receptor 2A (Homo sapiens) (P28223 whole entry): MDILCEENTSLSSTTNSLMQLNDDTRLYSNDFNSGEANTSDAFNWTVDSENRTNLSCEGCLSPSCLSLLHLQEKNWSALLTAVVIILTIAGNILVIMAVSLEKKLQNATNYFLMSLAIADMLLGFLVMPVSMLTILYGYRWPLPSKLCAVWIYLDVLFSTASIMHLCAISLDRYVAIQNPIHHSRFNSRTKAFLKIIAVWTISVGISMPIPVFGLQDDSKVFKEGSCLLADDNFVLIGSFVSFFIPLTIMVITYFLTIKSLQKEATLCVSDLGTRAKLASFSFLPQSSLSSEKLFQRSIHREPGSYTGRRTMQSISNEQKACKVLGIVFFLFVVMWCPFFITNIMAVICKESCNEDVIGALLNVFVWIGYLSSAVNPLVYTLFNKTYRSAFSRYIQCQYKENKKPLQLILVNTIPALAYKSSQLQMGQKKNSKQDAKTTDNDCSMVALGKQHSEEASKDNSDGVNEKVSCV

As for `COc1cc(CCNC2COc3ccccc32)c(OC)cc1C#N` (racemic), in experiment [1], the result was Active.
On to `COc1cc(CCNCc2cccc(O)c2)c(OC)cc1Br`, for which the Ratio EC50 in experiment [2] was found to be 12; in experiment [3], 15.
Turning to `COc1cc(CCNCc2ccccc2F)c(OC)cc1C#N`, the Ratio EC50 in experiment [3] amounted to 3.
